Reference: patent publication US9409952B2, “Peptide-compound cyclization method” (Chugai Seiyaku Kabushiki Kaisha, priority 2011, dated 2016)
Starred links: 1 amine or outer side, 2 acyl side, 3 side chain; linkers in the order of their positions; H or OH if unused. Positions of bridges follow the written chain, without caps; N, C: chain ends. Non-standard residues stand in square brackets, D forms with d. Residues, ends and D or L forms follow the SMILES beside them. *: point of attachment. X2 = O=C(C[C@H](N[*:1])C(F)(F)F)[*:2]; NMeF = CN[C@@H](Cc1ccccc1)C(=O)O; NMeL = CN[C@@H](CC(C)C)C(=O)O; NMeS = CN[C@@H](CO)C(=O)O; NMeA = CN[C@@H](C)C(=O)O; Piperidide = C1CCN(*)CC1; β3hA = C[C@H](N)CC(=O)O; Abu = CC[C@H](N)C(=O)O; Sar = CNCC(=O)O

Experiments:
[1] = PAMPA (parallel artificial membrane permeability assay); format: in vitro ADME; conditions: PAMPA; membrane permeation rate (Pe); 50 mM MOPSO buffer pH 6.5 with 5.0% glycocholic acid, 37° C., 18 hours; read-out: iPAMPA Pe
Summary of the method: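 Artificial membrane was 10% (w/v) egg lecithin plus 0.5% (w/v) cholesterol in dodecane on a PVDF filter. A 10 mM DMSO stock was added at 0.5% (v/v) to donor buffer (50 mM MOPSO, pH 6.5, 5.0% glycocholic acid). After 18 h at 37 °C, LC/MS or LC/UV gave donor and acceptor levels for Pe.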

[2] = Metabolic stability in human hepatic microsome; format: in vitro ADME; conditions: microsomes, pH 7.4; human hepatic microsome, NADPH(+); read-out: CL NADPH(+)

SMILES	Papp at 18 hours, 50 µM [1]	microsomal CLint at 1 uM [2]
CC(C)C[C@@H]1NC(=O)[C@H](CC(C)C)N(C)C(=O)[C@H](C(C)C)NC(=O)[C@H](CC(C)C)N(C)C(=O)CN(C)C(=O)[C@H](C(C)C)NC(=O)[C@H](CO)N(C)C(=O)[C@H](CC(C)C)N(C)C(=O)C[C@H](C)NC(=O)[C@H](CC(C)C)N(C)C(=O)[C@@H](C)NC1=O [DP-653] (cyclo(L[dA][NMeL][β3hA][NMeL][NMeS]V[Sar][NMeL]V[NMeL]))	33 ×10⁻⁶ cm/s	235 µL/min/mg
CC[C@@H]1NC(=O)[C@H](CO)N(C)C(=O)[C@H](CC(C)C)N(C)C(=O)[C@H](CC(C)C)N(C)C(=O)[C@H](CC(C)C)N(C)C(=O)[C@@H](C)NC(=O)[C@H](C)NC(=O)[C@H](CC(C)C)N(C)C(=O)[C@H](CC)NC(=O)[C@H](CC(C)C)N(C)C(=O)C[C@@H](C(F)(F)F)NC1=O [DP-655] (cyclo(A[dA][NMeL][NMeL][NMeL][NMeS][Abu][X2][NMeL][Abu][NMeL]))	34 ×10⁻⁶ cm/s	62 µL/min/mg
CC(C)C[C@@H]1NC(=O)[C@H](CO)N(C)C(=O)C[C@@H](C(F)(F)F)NC(=O)[C@H](CC(C)C)N(C)C(=O)[C@H](CC(C)C)N(C)C(=O)[C@@H](C)NC(=O)[C@H](C)NC(=O)[C@H](CC(C)C)N(C)C(=O)[C@H](CC(C)C)NC(=O)[C@H](CC(C)C)N(C)C(=O)CN(C)C1=O [DP-657] (cyclo(A[dA][NMeL][NMeL][X2][NMeS]L[Sar][NMeL]L[NMeL]))	24 ×10⁻⁶ cm/s	157 µL/min/mg
CC(C)C[C@H](NC(=O)[C@H](Cc1ccccc1)N(C)C(=O)[C@@H]1CC(=O)N[C@H](C)C(=O)N[C@@H](C(C)C)C(=O)N(C)[C@@H](Cc2ccccc2)C(=O)N(C)[C@@H](CC(C)C)C(=O)N(C)[C@@H](C)C(=O)N[C@@H]([C@@H](C)O)C(=O)N[C@@H](Cc2ccccc2)C(=O)N1)C(=O)N[C@@H](C)C(=O)N1CCCCC1 [DP-658] ([dA]V[NMeF][NMeL][NMeA]TFD[NMeF]LA-Piperidide; lactam N-8)	32 ×10⁻⁶ cm/s	86 µL/min/mg
CC[C@H](C)[C@@H]1NC(=O)[C@H](CC(C)C)N(C)C(=O)CN(C)C(=O)[C@H]([C@@H](C)O)NC(=O)[C@H](C)N(C)C(=O)C[C@@H](C(=O)N(C)[C@@H](C)C(=O)N[C@@H](CC(C)C)C(=O)N[C@H](C(=O)N(C)[C@@H](C)C(=O)N[C@@H](C)C(=O)N2CCCCC2)C(C)C)NC(=O)[C@H](CC(C)C)N(C)C(=O)[C@H](Cc2ccccc2)N(C)C(=O)[C@H](CC(C)C)N(C)C1=O [DP-659] ([NMeA]T[Sar][NMeL]I[NMeL][NMeF][NMeL]D[NMeA]LV[NMeA]A-Piperidide; lactam N-9)	22 ×10⁻⁶ cm/s	13 µL/min/mg
CC[C@H](C)[C@@H]1NC(=O)[C@H](CC(C)C)N(C)C(=O)CN(C)C(=O)[C@H]([C@@H](C)O)NC(=O)[C@H](C)N(C)C(=O)C[C@@H](C(=O)N(C)[C@@H](Cc2ccccc2)C(=O)N(C)[C@@H](C)C(=O)N[C@H](C(=O)N[C@@H](C)C(=O)N2CCCCC2)C(C)C)NC(=O)[C@H](CC(C)C)N(C)C(=O)[C@H](Cc2ccccc2)N(C)C(=O)[C@H](CC(C)C)N(C)C1=O [DP-660] ([NMeA]T[Sar][NMeL]I[NMeL][NMeF][NMeL]D[NMeF][NMeA]VA-Piperidide; lactam N-9)	27 ×10⁻⁶ cm/s	222 µL/min/mg
CC[C@H](C)[C@@H]1NC(=O)[C@H](CC(C)C)N(C)C(=O)CN(C)C(=O)[C@H]([C@@H](C)O)NC(=O)[C@H](C)N(C)C(=O)C[C@@H](C(=O)N(C)[C@@H](C)C(=O)N2CCC[C@H]2C(=O)N[C@@H](C)C(=O)N2CCCCC2)NC(=O)[C@H](CC(C)C)N(C)C(=O)[C@H](Cc2ccccc2)N(C)C(=O)[C@H](CC(C)C)N(C)C1=O [DP-661] ([NMeA]T[Sar][NMeL]I[NMeL][NMeF][NMeL]D[NMeA]PA-Piperidide; lactam N-9)	25 ×10⁻⁶ cm/s	17 µL/min/mg
CC[C@H](C)[C@@H]1NC(=O)[C@H](CC(C)C)N(C)C(=O)CN(C)C(=O)[C@H]([C@@H](C)O)NC(=O)[C@H](C)N(C)C(=O)C[C@@H](C(=O)N[C@@H](C)C(=O)N2CCC[C@H]2C(=O)N[C@@H](C)C(=O)N2CCCCC2)NC(=O)[C@H](CC(C)C)N(C)C(=O)[C@H](Cc2ccccc2)N(C)C(=O)[C@H](CC(C)C)N(C)C1=O [DP-662] ([NMeA]T[Sar][NMeL]I[NMeL][NMeF][NMeL]DAPA-Piperidide; lactam N-9)	18 ×10⁻⁶ cm/s	101 µL/min/mg
